Assay results as given in publication PMC11405833, “Targeted sulfur(VI) fluoride exchange-mediated covalent modification of a tyrosine residue in the catalytic pocket of tyrosyl-DNA phosphodiesterase 1” (Communications Chemistry, 2024).
Like-named read-outs stand apart in the source and are kept apart here.

How the values were obtained:
[1] = target: T1, recombinant full-length TDP1 (Homo sapiens, UniProt Q9NUW8); design: was incubated for 15 min. with recombinant full-length TDP1 or TDP1^Y204F (40 pM); method as in PMID 31199869; settings: reported data; cited from earlier work
[2] = target: T1, recombinant full-length TDP1; assay: gel-based TDP1 fluorescence assay in vitro (wild-type TDP1)
Protocol: The inhibition of TDP1 or TDP1^Y204F was also conducted using a gel-based assay as previously described[13],[14]. Briefly, the DNA substrate (1 nM, 5′Cy5-[sequence]-pY-3′, Cy5-N14Y) was incubated for 15 min. with recombinant full-length TDP1 or TDP1^Y204F (40 pM) in the absence or presence of inhibitors for 5 min. or 3 hr preincubation time as shown in Table 1 at room temperature (22 °C) in TDP1 reaction buffer (50 mM Tris HCl, pH 7.5, 80 mM KCl, 2 mM EDTA, 1 mM DTT, 40 µg/mL BSA and 0.01% Tween-20). […] Samples were then subjected to a 20% denaturing PAGE gel following by gel scanning using a Typhoon FLA 9500 scanner (GE Healthcare). The IC50 values of TDP1 inhibitors were calculated by comparing the percentage of cleavage product (5′Cy5-[sequence]-p-3′, Cy5-N14P) to DMSO control.

TDP1^Y204F = target: T2, TDP1^Y204F (Homo sapiens, UniProt Q9NUW8, Y204F); assay: gel-based TDP1 fluorescence assay in vitro (mutant TDP1 Y204F); type: biochemical
T2 construct: was incubated for 15 min. with recombinant full-length TDP1 or TDP1^Y204F (40 pM)
Protocol: The inhibition of TDP1 or TDP1^Y204F was also conducted using a gel-based assay as previously described[13],[14]. Briefly, the DNA substrate (1 nM, 5′Cy5-[…]-pY-3′, Cy5-N14Y) was incubated for 15 min. with recombinant full-length TDP1 or TDP1^Y204F (40 pM) in the absence or presence of inhibitors for 5 min. or 3 hr preincubation time as shown in Table 1 at room temperature (22 °C) in TDP1 reaction buffer (50 mM Tris HCl, pH 7.5, 80 mM KCl, 2 mM EDTA, 1 mM DTT, 40 µg/mL BSA and 0.01% Tween-20). […] Samples were then subjected to a 20% denaturing PAGE gel following by gel scanning using a Typhoon FLA 9500 scanner (GE Healthcare). The IC50 values of TDP1 inhibitors were calculated by comparing the percentage of cleavage product (5′Cy5-[…]-p-3′, Cy5-N14P) to DMSO control.

TDP1(148-608) = target: T3, TDP1(148-608) (Homo sapiens, UniProt Q9NUW8); assay: intact mass LC-MS analysis of covalent modification; type: binding; settings: 50 μM compound, overnight 25 °C, 1:65 enzyme/compound
T3 construct: The recombinant TDP1(148-608) (2 μg) in 50 μL of buffer
Protocol: The samples were incubated overnight at 25 °C with shaking at 500 rpm. The samples were diluted with water to 100 μL and analyzed by liquid chromatography coupled online with mass spectrometry (LC-MS)[67]. Separation was performed on a Vanquish Flex chromatographic system (Thermo) using a MabPac reversed-phase column (4 μm, 1500 Å, 3 ×50 mm, Thermo) maintained at 50 °C. The labeled proteins were resolved at 0.5 mL/min over a 15 min gradient of buffer B (47.5% acetonitrile, 47.5% isopropanol, 5% water, 0.2% formic acid (FA)) from 2 to 100% followed by re-equilibration at 2% buffer B (total run time 20 min) against buffer A (5% acetonitrile, 0.2% FA in water). The eluates from the column were introduced to an Exactive Plus EMR mass spectrometer (Thermo) through a heated electrospray ionization (HESI) source. Intact mass spectra were acquired over 500-2000 m/z window at 35,000 FT resolution (at 200 m/z), averaging 10 microscans, with an AGC target of 3 ×10^6, max injection time of 200 ms, 80% S-lens RF level, 20 V source-induced dissociation, and capillary temperature set at 275 °C. The resulting spectra were manually averaged followed by deconvolution using the ReSpect algorithm in BioPharma Finder 2.0 (Thermo). […]

[3] = TDP1 IC50, pre-incubation time 5 min with wild-type (WT) TDP1

T1 sequence (Q9NUW8 whole entry): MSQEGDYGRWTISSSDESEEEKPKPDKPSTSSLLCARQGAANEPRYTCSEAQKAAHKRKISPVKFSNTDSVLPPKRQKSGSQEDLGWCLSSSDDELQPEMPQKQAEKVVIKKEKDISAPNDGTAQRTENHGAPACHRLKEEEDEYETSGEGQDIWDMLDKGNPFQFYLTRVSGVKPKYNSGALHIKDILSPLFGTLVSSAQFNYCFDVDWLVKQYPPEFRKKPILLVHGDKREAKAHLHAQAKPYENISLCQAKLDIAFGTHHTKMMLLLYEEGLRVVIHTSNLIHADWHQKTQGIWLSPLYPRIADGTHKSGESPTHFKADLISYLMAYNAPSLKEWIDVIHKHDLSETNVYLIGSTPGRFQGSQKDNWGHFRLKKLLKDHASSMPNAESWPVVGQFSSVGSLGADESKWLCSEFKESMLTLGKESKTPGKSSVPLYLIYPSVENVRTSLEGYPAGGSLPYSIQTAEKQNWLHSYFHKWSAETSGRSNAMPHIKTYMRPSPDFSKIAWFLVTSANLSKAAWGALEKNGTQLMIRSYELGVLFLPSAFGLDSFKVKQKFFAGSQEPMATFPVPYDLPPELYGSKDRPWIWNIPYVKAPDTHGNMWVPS
T2 sequence (Q9NUW8 whole entry Y204F): as the sequence (Q9NUW8 whole entry) above, with Y204F counted along it
T3 sequence (Q9NUW8 148-608): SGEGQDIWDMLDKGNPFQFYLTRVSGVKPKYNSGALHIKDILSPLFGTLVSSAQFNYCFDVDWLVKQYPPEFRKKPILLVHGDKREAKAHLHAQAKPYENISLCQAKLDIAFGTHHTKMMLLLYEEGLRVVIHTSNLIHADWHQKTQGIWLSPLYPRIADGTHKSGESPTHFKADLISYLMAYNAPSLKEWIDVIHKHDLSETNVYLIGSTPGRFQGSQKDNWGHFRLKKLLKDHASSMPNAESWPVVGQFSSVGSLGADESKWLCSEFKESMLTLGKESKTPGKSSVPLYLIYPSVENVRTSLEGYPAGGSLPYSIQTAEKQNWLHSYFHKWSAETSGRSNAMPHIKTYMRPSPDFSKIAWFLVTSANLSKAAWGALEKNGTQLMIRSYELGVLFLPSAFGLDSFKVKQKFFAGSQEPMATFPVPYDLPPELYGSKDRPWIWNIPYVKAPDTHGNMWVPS

O=C(O)c1cnc2ccccc2c1O [Compound 1a]
IC50 [1]: 7.2 mM

O=C(O)c1c[nH]c2c(S(=O)(=O)O)cccc2c1=O [Compound 2a]
IC50 [2]: 4.61 ± 0.35 mM

O=C(O)c1c[nH]c2c(S(=O)(=O)Nc3ccccc3)cccc2c1=O [Compound 2b]
IC50 [2]: > 9 mM

O=C(O)c1c[nH]c2c(S(=O)(=O)NCCc3ccccc3)cccc2c1=O [Compound 2c]
IC50 [2]: > 9 mM

O=C(O)c1c[nH]c2c(S(=O)(=O)NCCCc3ccccc3)cccc2c1=O [Compound 2d]
IC50 ([2]; read-out: TDP1 IC50, WT TDP1, dash = no activity up to highest tested concentration): > 9 mM

O=C(O)c1c[nH]c2c(-c3ccccc3)cccc2c1=O [Compound 3a]
IC50 [2]: 5.17 ± 0.14 mM

O=C(O)c1c[nH]c2c(-c3cccc(OS(=O)(=O)F)c3)cccc2c1=O [Compound 3d]
IC50 [2, 3]: 0.69 ± 0.04 mM

O=C(NCCc1ccccc1)c1ccc(-c2cccc3c(=O)c(C(=O)O)c[nH]c23)c(OS(=O)(=O)F)c1 [Compound 3g, 8-(2-((fluorosulfonyl)oxy)-4-(phenethylcarbamoyl)phenyl)-4-oxo-1,4-dihydroquinoline-3-carboxylic acid]
IC50 (TDP1^Y204F): 4.69 ± 1.26 mM | fold reduced inhibitory potency with mutant TDP1^Y204F vs WT (TDP1^Y204F; 5 min pre-incubation): 11 fold | mass shift of single covalent modification of TDP1(148-608) (loss of fluorine) (TDP1(148-608)): +490.83 Da | fold increase in inhibitory potency relative to parent compound 3c [2]: 5 to 10 fold | fold increase in inhibitory potency compared with quinolone 1a ([2]; 5 min pre-incubation, WT TDP1, vs 1a IC50 7.2 mM): 18 fold | fold increase in TDP1 inhibitory potency compared to quinolone 3a ([2]; 5 min pre-incubation, WT TDP1, vs 3a IC50 5.17 mM): 13 fold | IC50 [2, 3]: 0.41 ± 0.07 mM | IC50 ([2]; TDP1 IC50, pre-incubation time 3 h with WT TDP1): 0.27 ± 0.03 mM | fold enhancement of IC50 by extending pre-incubation time from 5 min to 3 h ([2]; WT TDP1): 1.5 fold
